Data on two compounds can be found in patent US20060167106A1, “Compounds acting at the centrosome” (priority 2004, published 2006).

“Also recorded” adds a separate entry of the source.

Data set [1] concerns CHO-α-tubulin-YFP cells. As to the kind of experiment: α-tubulin-YFP localization in CHO-α-tubulin-YFP cells (fluorescence imaging). It counts as cell-based, Chinese hamster. As to conditions: for accumulation of tubulin in the centrosomes (overall statement): CHO-tubulin-YFP cells, concentration and time not given; for accumulation of tubulin at the centrosomes versus in the nucleus (overall statement): cells treated, concentration not given.

For data set [2] the following is noted: cited from earlier work.
The target of data set [3] is T1, bovine red blood cell 20S proteasome (Bos taurus, UniProt Q32KL2).
T1 construct: bovine red blood cell 20S proteasome; purchased Calbiochem; host or cells: purified from bovine red blood cells
The data set is described as follows: 20S Proteasome Assay (in vitro, Suc-Leu-Val-Tyr-AMC). It counts as biochemical. As to conditions: isolated 20S proteasome; for proteasome activity in vitro: 5 nM. On the procedure:
190 μl of reaction buffer (500 mM HEPES, 10 nM EDTA, pH 7.6), containing 0.03% SDS was pre-incubated for 5 minutes at 37° C. in the presence of 0.2 μg of bovine red blood cell 20S proteasome (Calbiochem, San Diego, Calif.) for temperature equilibration. Subsequently, inhibitors or Compound 1 were added to the reaction mixture at a final DMSO concentration of 0.5%. The reaction was initiated by adding 10 μl of the peptide-AMC substrate (Calbiochem, San Diego, Calif.) to each well. The emitted fluorescence was then measured every third minute at 37° C. for 90 minutes by a fluorescence plate reader (FlexStation II, Molecular Devices, Sunnyvale, Calif.) at 460 nm (λex360 nm) wavelength.
The buffers and reagents for the assay were purchased from Calbiochem (20S Proteasome Assay Kit; Calbiochem, San Diego, Calif.). The principle of the assay is that the release of free AMC (7-Amino-4-methylcoumarin) following degradation of the substrate results in a fluorescent signal that is a measure of proteasome activity. The quantitative analysis of 20S proteasome activity was assayed as described.

Data set [4] deals with 26S proteasome. The data set is described as follows: Proteasome-sensor cells, flow cytometry. It counts as cell-based. The procedure: The first measurement was determined by the increase of proteasome-sensor positive cells treated with Compound 1 or Velcade, as compared to DMSO, by using a cell line expressing the proteasome-sensor protein and flow cytometry analysis.
To measure the proteasome-inhibition effect of Compound 1, GFP fluorescence in the proteasome-sensor cells treated with Compound 1 and Velcade was measured using flow cytometry. […] Cells were harvested by treating the cells with 1×PBS for 5 minutes and pipetting the cells up and done 10 times. The cells were passed through a 100 μm-diameter filter before analyzing by FACS. A standard FITC filter was used for the FACS analysis. Quantitation of the proteasome-inhibitory effect of Compound 1 was determined by an increase in the percentage of GFP-positive cells, as compared to treatment with DMSO alone.
To further characterize the proteasome-inhibitory effect of Compound 1 in live cells, proteasome-sensor cells were treated with Compound 1 and the accumulation of the GFP-based proteasome substrate was measured by flow cytometry.

The subject of data set [5] is cell line expressing α-tubulin-YFP. The data set is described as follows: α-tubulin-YFP expressing cell line, flow cytometry of strong fluorescent cells. It counts as cell-based.

As to `CN(NC(=O)CC(=O)NN(C)C(=S)c1ccccc1)C(=S)c1ccccc1` [Compound 1], the “accumulation of α-tubulin-YFP at centrosomes” value in data set [1] (CHO cells, 50 nM, 8 hours) is “accumulation of α-tubulin-YFP at centrosomes; also recorded: induced accumulation of tubulin at centrosomes within 8 hours”; in data set [1] (CHO cells, 50 nM, 20 hours), “accumulation of α-tubulin-YFP at centrosomes”; in data set [1] (CHO cells, 100 nM, 4 hours), “accumulation of tubulin at centrosomes could be observed; also recorded: accumulation of α-tubulin-YFP at centrosomes”; in data set [1] (CHO cells, 500 nM, 4 hours), “accumulation of α-tubulin-YFP at centrosomes”; in data set [1] (CHO cells, 500 nM, 20 hours), “accumulation of α-tubulin-YFP at centrosomes”. Besides, the “accumulation of α-tubulin-YFP at the centrosomes” value in data set [1] (CHO cells, 0.5 μM, 5 hours) was “accumulation of α-tubulin-YFP at the centrosomes and perinuclear regions”; in data set [1] (CHO cells, 0.5 μM, 11 hours), “accumulation of α-tubulin-YFP at the centrosomes; also recorded: more frequent and greater accumulation of tubulin at the centrosome”. Besides, the “accumulation of tubulin-YFP at the centrosomes” value in data set [1] (CHO cells, 0.5 μM, 24 hours) is reported as “accumulation of tubulin-YFP at the centrosomes”. Further, the “first sign of tubulin accumulation at the centrosomes, time after treatment” value in data set [1] (CHO cells, Compound 1 alone (0.5 μM)) was found to be 5 h. Besides, the “accumulation of tubulin in the centrosomes (overall statement)” value in data set [1] is “time-dependent accumulation of α-tubulin-YFP at the centrosomes; also recorded: caused an accumulation of tubulin in the centrosomes”. Moreover, in data set [1], the “accumulation of tubulin at the centrosomes versus in the nucleus (overall statement)” value is “induced accumulation of tubulin only at the centrosomes; also recorded: not observed”. Moreover, in data set [2], the toxicity in vivo result is listed as “very low toxicity in vivo”. In addition, the “proteasome inhibitory activity in vitro (overall statement)” value was “very weak proteasome inhibitory activity in the in vitro assay” in data set [3] and “failed to inhibit isolated proteasomes” in data set [3] (listed as GMP-grade Compound 1). Moreover, the “proteasome activity in vitro” value in data set [3] is listed as “no effect on proteasome activity”. Moreover, the “proteasome inhibitory activity in vitro” value in data set [3] (50 μM) was “did not exhibit significant proteasome inhibitory activity; also recorded: neither Compound 1 nor its salt form, Compound 2, displayed significant proteasome inhibitory activity”. For the same compound, in data set [4] (500 nM), the “increase of the fluorescent positive cells (proteasome-sensor positive) compared to DMSO” value is 14.53%. Further, the “increase of fluorescence (non-gated flow cytometry)” value in data set [4] (500 nM, 20 hours) is on record as “significant increase of fluorescence”. The “increase in fluorescent cell population, lower than that of cells treated with Velcade” value in data set [4] (Compound 1 500 nM versus Velcade 100 nM, 20 hours) is recorded as “about 4 fold”. Also, the “increase of the strong-fluorescent positive cells compared to DMSO” value in data set [5] (500 nM) is on record as 20.37%.
`CC(C)C[C@H](NC(=O)[C@H](Cc1ccccc1)NC(=O)c1cnccn1)B(O)O` [Velcade]: the “accumulation of α-tubulin-YFP at centrosomes” value in data set [1] (CHO cells, 50 nM, 20 hours) is reported as “accumulation of α-tubulin-YFP at centrosomes”; in data set [1] (CHO cells, 500 nM, 4 hours), “lack of accumulation of tubulin-YFP at the centrosomes”; in data set [1] (CHO cells, 500 nM, 8 hours), “accumulation of α-tubulin-YFP at centrosomes”; in data set [1] (CHO cells, 500 nM, 20 hours) it was “accumulation of α-tubulin-YFP at centrosomes”. In addition, the “accumulation of α-tubulin-YFP in the nucleus” value is “accumulation of α-tubulin-YFP in the nucleus” in data set [1] (CHO cells, 50 nM, 20 hours); “accumulation α-tubulin-YFP in the nucleus” in data set [1] (CHO cells, 500 nM, 8 hours); “accumulation of α-tubulin-YFP in the nucleus” in data set [1] (CHO cells, 500 nM, 20 hours). Besides, the “accumulation of tubulin in the centrosomes (overall statement)” value in data set [1] is given as “required a higher concentration (500 nM; FIG. 25D) and/or a longer time period”. For the same compound, in data set [1], the “accumulation of tubulin at the centrosomes versus in the nucleus (overall statement)” value is “both accumulation of tubulin at the centrosomes and in the nucleus; also recorded: induced accumulation of tubulin in the nucleus”. Further, the toxicity in vivo result in data set [2] is “greater toxicity”. Besides, the “proteasome activity in vitro” value in data set [3] is recorded as “almost complete inhibition”. The “proteasome inhibition in vitro” value in data set [3] (0.5 μM) is reported as “almost completely inhibited the proteasome”. Also, the “increase of the fluorescent positive cells (proteasome-sensor positive) compared to DMSO” value in data set [4] (100 nM) was found to be 58.26%. The “increase of fluorescence (non-gated flow cytometry)” value in data set [4] (100 nM, 20 hours) is reported as “significant increase of fluorescence”. The “increase of the strong-fluorescent positive cells compared to DMSO” value in data set [5] (50 nM) came to 27.74%.
